Measured values: patent US9376424B2, “Methods for treating post traumatic stress disorder” (AZEVAN PHARMACEUTICALS, INC., priority 2010, dated 2016)
Entries after “also recorded” stand apart in the source; their conditions may differ. Values belong to the molecule of their own block, whether it stands above or below them.

Key:
human V1a receptor = molecular target: T1, human V1a receptor (Homo sapiens, UniProt P37288); assay: Inhibition of phosphatidylinositol turnover (V1a); type: cell-based; conditions: V1a
T1 construct: host or cells: CHO cells
Description: Inhibition of phosphatidylinositol turnover (V1a). The physiological effects of vasopressin are mediated through specific G-protein coupled receptors. The vasopressin V1a receptor is coupled to the Gq/G11 family of G proteins and mediates phosphatidylinositol turnover. The agonist or antagonist character of the compounds of the invention may be determined by their ability to inhibit vasopressin-mediated turnover of phosphatidylinositol by the procedure described in the following paragraphs.
Cell culture and labeling of cells. Three days prior to the assay, near-confluent cultures of hV1a or hV1b cells were dissociated and seeded in 6-well tissue culture plates, about 100 wells being seeded from each 75 cm^2 flask (equivalent to 12:1 split ratio). Each well contained 1 mL of growth medium with 2 μCi of [^3H]myo-inositol (American Radiolabeled Chemicals, St. Louis, Mo., USA).
Incubations (V1a and V1b). All assays were in triplicate except for basal and 10 nM AVP (both n=6). AVP ((arginine vasopressin), Peninsula Labs, Belmont, Calif., USA (#8103)) was dissolved in 0.1N acetic acid. Test agents were dissolved in DMSO and diluted in DMSO to 200 times the final test concentration. […] The order of incubations was randomized. Incubations were initiated by removing the prelabeling medium, washing the monolayer once with 1 mL of 0.9% NaCl, and transferring the contents of the assay tubes to corresponding wells. The plates were incubated for 1 hour at 37° C. Incubations were terminated by removing the incubation medium and adding 500 μL of ice cold 5% (w/v) trichloroacetic acid and allowing the wells to stand for 15 min.
Measurement of [^3H]inositol phosphates (V1a and V1b). BioRad Poly-Prep Econo-Columns were packed with 0.3 mL of AG 1×−8 100-200 formate form resin. Resin was mixed 1:1 with water and 0.6 mL added to each column. Columns were then washed with 10 mL water. Scintillation vials (20 mL) were placed under each column. For each well, the contents were transferred to a minicolumn, after which the well was washed with 0.5 mL distilled water, which was also added to the minicolumn. The columns were then washed twice with 5 mL of 5 mM myo-inositol to elute free inositol. Aliquots (1 mL) were transferred to 20 mL scintillation vials and 10 mL of Beckman Ready Protein Plus added. After the myo-inositol wash was complete, empty scintillation vials were placed under the columns, and [^3H]inositol phosphates were eluted with three additions of 1 mL 0.5 M ammonium formate containing 0.1 N formic acid. Elution conditions were optimized to recover inositol mono-, bis-, and trisphosphates, without eluting the more metabolically inert tetrakis-, pentakis-, and hexakis-phosphates. To each sample was added 10 mL of a high salt capacity scintillation fluid such as Tru-Count High Salt Capacity or Packard Hionic-Fluor. Inositol lipids were measured by adding 1 mL of 2% sodium dodecyl sulfate (SDS) to each well, allowing the wells to stand for at least 30 min., and transferring the solution to 20 mL scintillation vials, to which 10 mL Beckman Ready Protein Plus scintillation fluid was then added. Samples were counted in a Beckman LS 3801 liquid scintillation counter for 10 min. Total inositol incorporation for each well was calculated as the sum of free inositol, inositol phosphates, and inositol lipids.
Data analysis (V1a and V1b): concentration-inhibition experiments. Concentration-response curves for AVP and concentration-inhibition curves for test agents versus 10 nM AVP were analyzed by nonlinear least-squares curve-fitting to a 4-parameter logistic function. Parameters for basal and maximal inositol phosphates, EC50 or IC50, and Hill coefficient were varied to achieve the best fit. The curve-fitting was weighted under the assumption that the standard deviation was proportional to dpm of radioactivity. Full concentration-response curves for AVP were run in each experiment. […]

C57B1/6J males = assay: Social Interaction Test after chronic social subjugation; type: in vivo, mouse; conditions: mice, 28-day treatment regimen
Description: Mouse Chronic Subordination Model of Depression. Social stress is a factor in the etiology of several psychopathologies, with individuals differing in vulnerability. Adult male mice are subjected to a model of chronic psychosocial stress in which resident/intruder dyads live chronically in sensory contact and physically interact on a daily basis.
Anti-depressant Effect in the Social Interaction Test. […] A rapid subjugation paradigm in mice lead to diminished social interaction behavior, where the dependent measures are distance traveled and time in the Interaction Zone. […] These observations are consistent with the subordination/social interaction model as a rapid behavioral screen for potential antidepressants. Additional details are described in Berton et al. (2006).
Briefly, C57B1/6J males were defeated daily for 10 days by resident, highly aggressive CF-1 males. After 5 minutes of direct exposure, a perforated plastic partition was inserted into the cage that allowed olfactory and visual contact without physical defeat for the remaining 23 hr 55 min each day. The C57 males were exposed to a different resident male in a different cage each day to increase the stress of the procedure (it was observed that all CF-1 males attacked the intruder each day). At the end of the 10 day defeat procedure, the C57 males were tested in an open field apparatus during the dark phase. A dominant male was caged in an area of the open field apparatus termed the “social interaction zone.” Time and distance traveled in the zone were recorded. The C57 males were then divided randomly among the following treatments: AVN246-HCl (2 mg/kg), saline vehicle (0.45%), or chlordiazepoxide (10 mg/kg). Treatments were given daily (i.p.) for 28 days and the animals were retested. Behavioral changes were determined by calculating difference scores (Post-Pretest) and these scores were analyzed.

resident male rats = assay: Resident-Intruder Model of Stress and Aggression in Rats (neuroimaging); type: in vivo, rat; conditions: awake resident male rats, 5 mg/kg
Description: Resident-Intruder Model of Stress and Aggression in Rats. Neuroimaging is used to assess the blockade of stress/arousal with test compound compared to control. The effect of AVN251-HCl on functional circuitry was examined using the imaging method for awake rats. Additional details of the assay are described in Ferris et al. (2008).
Male rats in the company of a female cage mate will piloerect in the presence of a male intruder. This piloerection is a sign of stress and aggressive intent and is associated with activation of stress/arousal circuits in the brain. […] Resident male rats from six male:female pairs were imaged while fully awake. During a single imaging session, these males were treated with vehicle or AVN251-HCl (5 mg/kg).
The total volume of brain activation for resident males confronted with their mate alone, mate plus intruder, and mate plus intruder in the presence of AVN251-HCl can be viewed as 3D models. While there appears to be a general decrease in BOLD signal in major regions with AVN251-HCl treatment, sexual motivation, as assessed by the presentation of a novel receptive female, was unaffected by V1a receptor blockade.
Stress circuit activation in response to an intruder male is assessed by obtaining brain scans viewed from a caudal/dorsal perspective as translucent shells. The localization of activated voxels is mapped as 3D volumes of activation, which are composed of 10 subjects each. Once fully registered and segmented, the statistical responses for each subject are averaged on a voxel-by-voxel basis. Those averaged voxels exceeding a 2.0% threshold are shown in their appropriate spatial location. Functional images are acquired on awake rats at 4.7 T.
The 3D volumes of activation are composed from results obtained with 10 subjects in each condition. […] Particular olfactory systems measured included the anterior olfactory nucleus, olfactory tubercle, piriform cortex, n. laterial olfactory tract, and entrorhinal cortex. Particular dopaminergic systems measured included the prelimbic cortex, accumbens, ventral pallidum, medial dorsal thalamus, and ventral tegmentum.
Awake rats were imaged when presented with their mate+an intruder, a highly stressful stimulus.

male Long Evans rats = assay: Predatory fear conditioning model of PTSD (ferret/sucrose, fMRI of awake rats); type: in vivo, rat
Description: The use of the compounds and compositions described herein for treating PTSD and stress-related affective illness is established using a model of predatory fear conditioning. The model uses fMRI data of rats exposed to a ferret, a natural predator, as the unconditioned stimulus while experiencing the taste of sucrose, which is highly rewarding, as the conditioned stimulus. The taste of sucrose becomes associated with the traumatic memory of the ferret. […] This hyperarousal pattern of brain activity in response to a stimulus associated with a traumatic memory is characteristic of PTSD. […] Thus, the memory of fear is worse than fear itself. Treatment with compounds and compositions described herein block the hyperarousal seen with the sucrose-associated traumatic memory in untreated animals. The compounds described herein are efficacious in a this new preclinical model of PTSD in rats that utilized predatory fear as the unconditioned stimulus and the taste of sucrose as the conditioned stimulus. […] Compounds described herein are also efficacious in established models of depression (social interaction test), anxiety (Elevated Plus Maze, Light:Dark Shuttle Box), and aggression (resident:intruder test). The predatory fear conditioning juxtaposes an aversive unconditioned stimulus (threat of predation), with the taste of sucrose as the conditioned stimulus. During an imaging session, awake rats are exposed to a live, sable ferret placed into the bore of the magnet. This presentation of the predator is done with and without the application of sucrose to the tongue of the rat. Retrieval of the memory weeks later by the application of sucrose alone (as a Conditioned Stimulus) in the absence of the ferret elicits a robust increase in brain activity that far exceeds the initial presentation of the predator. […]

T1 sequence (P37288 whole entry): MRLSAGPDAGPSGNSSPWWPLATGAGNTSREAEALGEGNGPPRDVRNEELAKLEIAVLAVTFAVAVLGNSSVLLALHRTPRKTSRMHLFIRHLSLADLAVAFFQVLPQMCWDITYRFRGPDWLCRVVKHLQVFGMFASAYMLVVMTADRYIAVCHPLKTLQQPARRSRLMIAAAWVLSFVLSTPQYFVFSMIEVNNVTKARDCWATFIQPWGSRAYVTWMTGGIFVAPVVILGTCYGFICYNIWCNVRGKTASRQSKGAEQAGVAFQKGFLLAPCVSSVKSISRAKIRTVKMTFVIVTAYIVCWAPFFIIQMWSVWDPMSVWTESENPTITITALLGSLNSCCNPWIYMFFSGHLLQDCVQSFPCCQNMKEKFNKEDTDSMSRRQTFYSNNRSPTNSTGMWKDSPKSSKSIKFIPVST

Compound: O=C(NCc1cccc(C(F)(F)F)c1)C(CC(=O)N1CCC(N2CCCCC2)CC1)N1C(=O)C(N2C(=O)OCC2c2ccccc2)C1C=Cc1ccccc1 (stereo not shown) [Example 44]
- agonist or antagonist character (inhibition of vasopressin-mediated phosphatidylinositol turnover) (human V1a receptor): vasopressin V1a antagonists

Compound: CNCCC(Oc1ccc(C(F)(F)F)cc1)c1ccccc1 (stereo not shown) [fluoxetine]
- effect on deficits in social interaction produced by chronic subordination (C57B1/6J males): reversed deficits produced by chronic subordination
- effect on deficits in social interaction produced by chronic subordination (C57B1/6J males; listed as Fluoxetine): produced comparable improvements
- sexual motivation (reward circuit activation by novel receptive female) (resident male rats): markedly diminished activation of this circuit

Compound: C[C@@H](NC(=O)[C@@H](CC(=O)N1CCC(N2CCCCC2)CC1)N1C(=O)[C@@H](N2C(=O)OC[C@@H]2c2ccccc2)[C@H]1/C=C/c1cccc(I)c1)c1ccccc1 [Example 266]
- retrieval of predatory fear memory (male Long Evans rats): effective in blocking retrieval of predatory fear memory
- predatory fear response in the unconditioned test animal (activation for ferret alone) (male Long Evans rats; pretreatment 5 mg/kg body weight): retained
- hyperarousal brain activation pattern (BOLD) on re-exposure to sucrose alone (male Long Evans rats; pretreatment 5 mg/kg body weight, two weeks after conditioning, listed as AVN576): blocked the hyperarousal brain activation pattern; also recorded: significantly reduces brain activation

Now from value to molecule:

- agonist or antagonist character (inhibition of vasopressin-mediated phosphatidylinositol turnover) (human V1a receptor): vasopressin V1a antagonists
Compound: O=C(NCc1cccc(C(F)(F)F)c1)[C@H](CCC(=O)N1CCN(CCc2ccccc2)CC1)N1C(=O)[C@@H](N2C(=O)OC[C@@H]2c2ccccc2)[C@H]1C=Cc1ccccc1 (single isomer, unassigned) [Example 35]

- agonist or antagonist character (inhibition of vasopressin-mediated phosphatidylinositol turnover) (human V1a receptor): vasopressin V1a antagonists
Compound: O=C(NCc1cccc(C(F)(F)F)c1)C(CCC(=O)N1CCN(C2CCCCC2)CC1)N1C(=O)C(N2C(=O)OCC2c2ccccc2)C1C=Cc1ccccc1 (single isomer, unassigned) [Example 110]

- agonist or antagonist character (inhibition of vasopressin-mediated phosphatidylinositol turnover) (human V1a receptor): vasopressin V1a antagonists
Compound: O=C(NCc1cccc(C(F)(F)F)c1)C(CCC(=O)N1CCC(N2CCCCC2)CC1)N1C(=O)C(N2C(=O)OCC2c2ccccc2)C1C=Cc1ccccc1 (stereo not shown) [Example 88]
